“And” between values parts separate entries of the source, which are not always exact repeats. Identical values can stand only once. Like-named read-outs stand apart in the source and are kept apart here.
What was measured:
wistar rats = experiment: Carrageenan induced paw edema model (Example 16); assay type: in vivo; details: Rattus norvegicus, po, 10 mg/kg p.o. single dose, read-out: Percentage inhibition (%) of inflammation
Description: Fourty five wistar rats were divided into nine groups (n=5). Following treatment was given to the rats as single dose: […] The percentage inhibition of edema was calculated for each group with respect to the vehicle received control group of animals.

[1] = test system: streptozotocin induced diabetic rats; experiment: Antidiabetic activity of coated extracts in different doses in streptozotocin induced diabetic rats (Example 33); assay type: in vivo, rat; details: STZ diabetic rats
Description: Different Ashwagandha extracts with coating in different dosages was evaluated for antidiabetic activity in experimental rats. Male/Female albino wistar rats were maintained as per standard guidelines: housed in polypropylene cages, under 12 hour artificial light and dark cycles at a temperature of 24±2° C., given a standard pellet diet and water ad libitum. The animals were acclimatized to the animal house conditions for a week before beginning the experiment. Diabetes was induced by injecting streptozotocin 35 mg/kg dissolved in 0.1 M citrate buffer of pH 4.5, intra-peritoneally. Five days after induction of diabetes (day 1 of the study), animals were fasted for 12 hours and the fasting blood glucose level (FBG) was estimated for diagnosing diabetic rats. Animals with FBG above 200 mg/dl were considered diabetic. The diabetic animals were randomly divided into 13 groups of 4 animals each.
Fasting blood glucose level and body weight of rats was measured initially and then at Day 7, Day 14, Day 21 and Day 28 of the study.

[2] = test system: streptozotocin induced diabetic rats; experiment: Antidiabetic activity in streptozotocin induced diabetic rats (Example 32); assay type: in vivo, rat; details: STZ diabetic rats
Description: Male/Female albino wistar rats were maintained as per standard guidelines: housed in polypropylene cages, under 12 hour artificial light and dark cycles at a temperature of 24±2° C., given a standard pellet diet and water ad libitum. The animals were acclimatized to the animal house conditions for a week before beginning the experiment. Diabetes was induced by injecting streptozotocin 35mg/kg dissolved in 0.1 M citrate buffer of pH 4.5, intra-peritoneally. […] Animals with FBG above 200 mg/dl were considered diabetic. The diabetic animals were randomly divided into 13 groups of six animals each. One normal group was also included comprising of six normal rats.

Albino Wistar rats = experiment: Anoxia stress tolerance test (Example 16); assay type: in vivo, rat; details: 2 mg/kg p.o.
Description: Albino Wistar rats of either sex weighing 150-220 g were selected and divided into 11 groups of six each and following treatment was given after one week of acclimatization:
Animals were treated as shown above for the 3 weeks. At the end of 1st, 2nd and 3rd week i.e. on 7th, 14th and 21st day 1 h after the treatment stress was induced by placing each animal individually in the hermetic vessel of 1 L capacity to record anoxia tolerance time. The time duration of entry of the animal into the hermetic vessel and the appearance of the first convulsion was taken as time of anoxia.

rats [3] = experiment: Forced swim test after reserpine injection, enteric and nonenteric coated extracts (Example 14); assay type: in vivo, rat; details: Reserpine 6 mg/kg i.p.; 10 mg/kg p.o.; vehicle 250, normal control 120
Description: 92 rats were divided into twenty three groups. Each group had 4 rats. The animals were trained for swimming test (15 minutes) as pre-test session and then fasted overnight. To the fasted animals, reserpine (6 mg/kg) was injected i.p. to depress the animals. After 1 hour of reserpine injection, the test samples/standard was fed orally as designated dose. After 1 hour of test sample/standard, the rats were tested using forced swim test and duration of immobility in the 5 minutes test session was recorded.

rats [4] = experiment: Forced swim test after reserpine, normal (film), enteric and delayed release coating (Example 30); assay type: in vivo, rat; details: Reserpine 6 mg/kg i.p.; 10 mg/kg p.o.; test after 2 hour; vehicle 250, normal control 120
Description: 60 rats were divided into 15 groups comprising of 4 rats in each group. The animals were trained for swimming test (15 minutes) as pre-test session and then fasted overnight. To the fasted animals, reserpine (6 mg/kg) was injected i.p. to depress the animals. Immediately after reserpine injection, the test samples with normal (Hydroxy Propyl Cellulose; HPC), enteric (Eudragit) and delayed release (High percentage of Eudragit) coating/standard were fed orally as designated doses. After 2 hour of test sample/standard, the rats were tested using forced swim test and duration of immobility in the 5 minutes test session was recorded. In this test more immobility time indicate that animal is more depressed or stressed.

rats [5] = experiment: Forced swim test after reserpine injection, different Ashwagandha extracts (Example 13); assay type: in vivo, rat; details: Reserpine 6 mg/kg i.p.; 10 mg/kg p.o.; vehicle 210, normal control 120
Description: 44 rats were divided into eleven groups having 4 rats in each group. The animals were trained for swimming test (15 minutes) as pre-test session and then fasted overnight. To the fasted animals, reserpine (6 mg/kg) was injected i.p. to depress the animals. After 1 hour of reserpine injection, the test samples/standard was fed orally as designated dose.

rats [6] = experiment: Forced swim test after reserpine, powder/extracts treated at different pH (Example 29); assay type: in vivo, rat; details: Reserpine 6 mg/kg i.p.; 10 mg/kg p.o.; vehicle 250, normal control 120
Description: Ashwagandha powder/extract was added to different buffer(pH 1,2,3,5,7 and 7.4) in 1:20 ratio of Ashwagandh powder/extract: buffer. The extract -buffer solution was kept in a waterbath at 37° C. for 2 hrs. The solution was neutralised by adding base or acid solution. The neutralised solution was concentrated and dried.
The animals were trained for swimming test (15 minutes) as pre-test session and then fasted overnight. To the fasted animals, reserpine (6 mg/kg) was injected i.p. to depress the animals. After 1 hour of reserpine injection, the test samples treated at different pH/standard were fed orally as designated dose. After 1 hour of test sample/standard, the rats were tested using forced swim test and duration of immobility in the 5 minutes test session was recorded. In this test more immobility time indicate that animal is more depressed or stressed.

rats [7] = experiment: Forced swim test after reserpine, different percentage of enteric coating (Example 31); assay type: in vivo, rat; details: Reserpine 6 mg/kg i.p.; 10 mg/kg p.o.; test after 2 hour; vehicle 250, normal control 120
Description: Efficacy Study of Different Ashwagandha Extracts Granules with Different Percentage of Enteric Coating. 44 rats were divided into 11 groups comprising of 4 rats in each group. The animals were trained for swimming test (15 minutes) as pre-test session and then fasted overnight. To the fasted animals, reserpine (6 mg/kg) was injected i.p. to depress the animals. Immediately after the reserpine injection, the test samples (ashwagandha root powder) with different percentage of enteric coating/standard were fed orally as designated dose. After 2 hour of test sample/standard, the rats were tested using forced swim test and duration of immobility in the 5 minutes test session was recorded. In this test more immobility time indicate that animal is more depressed or stressed.
The test was repeated with different percentage of coated ashwagandha extract containing 3.5% withanolide glycosides and different percentage of coated ashwagandha extract containing 35% and 80% withanolide glycosides.

[8] = before treatment, group 0.5 mg/kg

Question: Which results are given for COc1ccc2c(c1)c(CC(=O)O)c(C)n2C(=O)c1ccc(Cl)cc1 [Indomethacin]?
Answer: inhibition at 10 mg/kg (wistar rats; 0.5 hr): 28%; inhibition at 10 mg/kg (wistar rats; 1 hr): 65%; inhibition at 10 mg/kg (wistar rats; 2 hr): 80%; inhibition at 10 mg/kg (wistar rats; 3 hr): 86%

Question: Which results are given for COc1ccc(Cl)cc1C(=O)NCCc1ccc(S(=O)(=O)NC(=O)NC2CCCCC2)cc1 [Glibenclamide]?
Answer: Fasting blood glucose (FBG) level after 28 days ([1]; 0.5 mg/kg for 28 days): 125 mg/dL; Fasting Blood Glucose level ([1]; Day 1 (Initial), standard drug): 423 mg/dL; Fasting Blood Glucose level ([1]; Day 7, standard drug): 381 mg/dL; Fasting Blood Glucose level ([1]; Day 14, standard drug): 246 mg/dL; Fasting Blood Glucose level ([1]; Day 21, standard drug): 197 mg/dL; Fasting Blood Glucose level ([1]; Day 28, standard drug): 125 mg/dL; Fasting blood glucose (FBG) level, initial [1, 8]: 423 mg/dL; Fasting blood glucose (FBG) level after 28 days ([2]; 0.5 mg/kg for 28 days): 124 mg/dL; Fasting Blood Glucose level ([2]; Day 1 (Initial), standard drug): 422 mg/dL; Fasting Blood Glucose level ([2]; Day 7, standard drug): 380 mg/dL; Fasting Blood Glucose level ([2]; Day 14, standard drug): 245 mg/dL; Fasting Blood Glucose level ([2]; Day 21, standard drug): 196 mg/dL; Fasting Blood Glucose level ([2]; Day 28, standard drug): 124 mg/dL; Fasting blood glucose (FBG) level, initial [2, 8]: 422 mg/dL

Question: Which “Duration of anoxia stress tolerance” value (Albino Wistar rats; First week) does the source give for CN1C(=O)CN=C(c2ccccc2)c2cc(Cl)ccc21 [Diazepam] here?
Answer: 34.50 min

Question: What about the “Duration of anoxia stress tolerance” value (Albino Wistar rats; Second week) of the same molecule?
Answer: 37.33 min

Question: And the “Duration of anoxia stress tolerance” value (Albino Wistar rats; Third week)?
Answer: 37.00 min

Question: Which “Immobility time” value (rats [3]) does the source give for CNCCC(Oc1ccc(C(F)(F)F)cc1)c1ccccc1 (centres unmarked) [Fluoxetine] here?
Answer: 122 s

Question: What about the “Immobility time” value (rats [4]) of the same molecule?
Answer: 120 s

Question: And the “Immobility time” value (rats [5])?
Answer: 122 s

Question: And the “Immobility time” value (rats [6])?
Answer: 122 s and 120 s

Question: And the “Immobility time” value (rats [7])?
Answer: 120 s

— patent US10251927B2, “Process to enhance the bioactivity of Ashwagandha extracts” (priority 2015, dated 2019)
